Measured values reported in patent US5395922A, “Yeast processing system” (Novo Nordisk A/S, priority 1989, dated 1995).

Tests used:
Format in all cases: biochemical
trypsin [1] = experiment: Trypsin inhibition titration curves (S 2251 substrate, rate of nitroaniline production); settings: 30 minutes incubation of enzyme with inhibitor, 0.6 mM S 2251; FIG. 5A
Description: (§1) The trypsin and plasmin inhibition by Glu-Leu-aprotinin (1-58) in terms of titration curves determined as described below were indistinguishable from that of bovine pancreatic aprotinin (Aprotinin Novo). After incubation of the enzyme with aprotinin or its analogues for 30 minutes, 0.6 mM S 2251 (KabiVitrum) was added and the activity measured as the rate of nitroaniline production. The activity as a function of aprotinin concentration is plotted in FIG. 5A and 5B. Complete inhibition of both enzymes with all three inhibitors was observed.

plasmin = plasmin (Homo sapiens, UniProt P00747); experiment: Plasmin inhibition titration curves (S 2251 substrate, rate of nitroaniline production); settings: 30 minutes incubation of enzyme with inhibitor, 0.6 mM S 2251; FIG. 5B
Sequence of plasmin (P00747 581-810 limits assumed, species assumed): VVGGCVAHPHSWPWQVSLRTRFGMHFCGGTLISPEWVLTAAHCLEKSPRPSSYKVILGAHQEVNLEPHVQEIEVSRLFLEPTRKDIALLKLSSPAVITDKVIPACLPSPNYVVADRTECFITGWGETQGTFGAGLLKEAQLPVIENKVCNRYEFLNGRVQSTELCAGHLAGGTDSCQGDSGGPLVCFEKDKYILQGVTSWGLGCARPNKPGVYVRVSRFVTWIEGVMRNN
Sequence of plasmin (P00747 97-580 partner limits assumed, species assumed): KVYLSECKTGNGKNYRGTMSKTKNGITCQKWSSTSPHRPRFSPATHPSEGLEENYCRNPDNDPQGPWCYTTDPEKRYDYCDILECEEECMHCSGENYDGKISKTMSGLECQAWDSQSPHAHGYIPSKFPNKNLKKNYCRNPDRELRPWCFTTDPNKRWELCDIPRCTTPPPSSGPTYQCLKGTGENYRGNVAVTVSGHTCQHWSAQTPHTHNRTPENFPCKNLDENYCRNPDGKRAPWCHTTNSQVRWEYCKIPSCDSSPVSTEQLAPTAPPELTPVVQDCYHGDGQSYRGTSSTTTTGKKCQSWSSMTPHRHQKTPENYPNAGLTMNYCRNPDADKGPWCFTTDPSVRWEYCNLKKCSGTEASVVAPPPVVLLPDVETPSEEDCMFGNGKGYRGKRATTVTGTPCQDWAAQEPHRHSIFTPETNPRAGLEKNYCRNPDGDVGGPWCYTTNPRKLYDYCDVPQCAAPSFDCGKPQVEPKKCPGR
Description: as §1

trypsin [2] = experiment: Trypsin inhibitor specific activity, spectrophotometric assay (method of Kassel); settings: comparison with native aprotinin
Description: Yeast strain KFN-837 was grown on YPD medium (1% yeast extract, 2% peptone (from Difco Laboratories), and 6% glucose). A 200 ml culture of the strain was shaken at 250 rpm at 30° C. for 3 days to an O.D. at 600 nm of 20 (Dry yeast biomass 18.8 g/liter). After centrifugation the supernatant was analyzed by FPLC ion exchange chromatography. The yeast supernatant was filtered through a 0.22 μm Millex GV filter unit and 1 ml was applied on a MonoS cation exchange column (0.5×5 cm) equilibrated with 20 mM Bicine, pH=8.7. After wash with equilibration buffer the column was eluted with a linear NaCl gradient (0-1M) in equilibration buffer. Trypsin inhibitor activity was quantified in the eluted fractions by spectrophotometric assay (Kassel, B., Methods Enzymol. 19 (1970), 844-852) and furthermore by integration of absorption at 280 nm from [formula] The yield was […] of Glu-Leu-aprotinin(1-58).
as §1, with “Complete inhibition of both enzymes with all three inhibitors was observed.” left out

plasmin inhibition in terms of titration curves, compared with bovine pancreatic aprotinin (Aprotinin Novo) (plasmin) | Substance | trypsin inhibition in terms of titration curves, compared with bovine pancreatic aprotinin (Aprotinin Novo) (trypsin [1]) | specific (inhibitory) activity against trypsin compared with native / bovine pancreatic aprotinin (trypsin [2])
indistinguishable | Glu-Leu-Asp-Leu-aprotinin(1-58) | indistinguishable | 
indistinguishable | Glu-Leu-aprotinin(1-58) | indistinguishable | identical within the experimental error
 | aprotinin(1-58) |  | indistinguishable
